Like-named read-outs stand apart in the source and are kept apart here.
Experiments:
[1] = format: physicochemical
Protocol: The ratio of COMPOUND A to Lutetium was 3:1 for all samples. The reaction mixtures were heated, cooled, treated with Na2EDTA.2H2O and analyzed by HPLC as described in Example 13, and then stored at room temperature for 24 hours, at which time all samples were analyzed again.

[2] = format: physicochemical; remark: listed apart in the source
Protocol: The injection volume was 20 μL.
Solutions of 1-pyrrolidine dithiocarbamic acid ammonium salt (PDTC) were prepared at concentrations of 20-, 10-, 5- and 1 mg/mL by dissolving it in a sodium acetate (NaOAc) buffer solution (0.2 M, pH 4.8). To lead-shielded 300-μL sample vials were added, individually, 50-μL aliquots of the PDTC-NaOAc butter solutions, including an aliquot of the NaOAc buffer only, to serve as a control sample. To each buffer aliquot was added 9.95 mCi ^177LuCl3 (avg) and 17.2 μg COMPOUND A (dissolved in water). The molar ratio of COMPOUND A:Lu (total Lu) for each sample was 3:1. During the reaction, in each sample, the concentration of COMPOUND A was 287-μg/mL and the activity concentration was 167-mCi/mL. The samples wore heated to 100° C. for 5 minutes, then cooled for 5 minutes in an ambient-temperature water bath. To each sample, 10 μL of 2% EDTA in water was added, and then each was analyzed by HPLC (Method 3) over 48 hours. At t=0, the radioactivity concentration was 143 mCi/mL.

[3] = format: physicochemical; remark: listed apart in the source
[4] = Effect of contaminant zinc on ^177Lu-B labeling with PDTC in reaction buffer (Example 20); format: physicochemical; conditions: Sample 2: COMPOUND B with ^177Lu in the presence of zinc and PDTC (COMPOUND B:^177Lu:Zinc 3:1:3)
Protocol: The injection volume was 10 μL.
At times, ^177LuCl3 isotope solutions are contaminated with non-radioactive metals that can interfere with radiolabeling. These metals (which may include, for example Zn, Cu, Ca and Fe among others), can compete with ^177Lu for the chelator, thus lowering reaction yields by consuming ligand so it is unavailable for chelation to ^177Lu.
A 10-mg/mL solution of 1pyrrolidine dithiocarbamic acid ammonium salt was prepared by dissolving it in sodium acetate buffer (0.2 M, pH 4.8). To a lead-shielded, 300-μL sample vial was added 86.5 μL of the NaOAc buffer solution, 13.7 mCi ^177LuCl3, 0.6525 μg zinc (6.52 μL of a 100-μg/mL zinc plasma standard solution) and 15 μg COMPOUND B (dissolved in water). This was labeled as ‘Sample 1’. To another lead-shielded, 300-μL sample vial was added 86.5 μL of the […] 1-pyrrolidine dithiocarbamic acid ammonium salt/NaOAc buffer solution, 13.8 mCi ^177LuCl3, 0.6525 μg zinc and 15 μg COMPOUND B. This was labeled as ‘Sample 2’. The concentration of COMPOUND B in each sample was 150 μg/mL and the molar ratio of COMPOUND B:^177Lu:Zinc for each sample was 3:1:3. The samples were heated to 100° C. for 5 min, and then cooled for 5 min in an ambient-temperature water bath. To each sample, 10 μL of 2% Na2EDTA.2H2O in water was added, and then each was analyzed by HPLC, using HPLC Method 5.

[5] = ^177Lu-A prepared with PDTC 1 mg/mL (0.05 mg)
[6] = ^177Lu-A prepared with PDTC 5 mg/mL (0.25 mg)
[7] = ^177Lu-A prepared with PDTC 10 mg/mL (0.5 mg)
[8] = ^177Lu-A prepared with PDTC 20 mg/mL (1 mg)

## N.S=C(S)N1CCCC1 [PDTC, 1-pyrrolidine dithiocarbamic acid ammonium salt]
[1]; ^177Lu-A (4.65-5.64 mCi) prepared in presence of stabilizer 5 mg/mL, 0 h
  RCP % t = 0 h: 100%
[1]; ^177Lu-A prepared in presence of stabilizer 5 mg/mL, room temperature, 24 h
  RCP % t = 24 h: 99.9%
[2]; ^177Lu-A 143 mCi/mL at t=0, prepared with PDTC 1 mg/mL (0.05 mg)
  RCP (%) 0-h: 100%
[2]; ^177Lu-A 143 mCi/mL at t=0, prepared with PDTC 5 mg/mL (0.25 mg)
  RCP (%) 0-h: 100%
[2]; ^177Lu-A 143 mCi/mL at t=0, prepared with PDTC 10 mg/mL (0.5 mg)
  RCP (%) 0-h: 100%
[2]; ^177Lu-A 143 mCi/mL at t=0, prepared with PDTC 20 mg/mL (1 mg)
  RCP (%) 0-h: 100%
[2]; [5]
  RCP (%) 3-h: 100%
  RCP (%) 6-h: 17.2%
  RCP (%) 12-h: 0%
  RCP (%) 24-h: 0%
[2]; [6]
  RCP (%) 3-h: 100%
  RCP (%) 6-h: 100%
  RCP (%) 12-h: 100%
  RCP (%) 24-h: 0%
[2]; [7]
  RCP (%) 3-h: 100%
  RCP (%) 6-h: 100%
  RCP (%) 12-h: 100%
  RCP (%) 24-h: 100%
  RCP (%) 48-h: 100%
[2]; [8]
  RCP (%) 3-h: 100%
  RCP (%) 6-h: 100%
  RCP (%) 12-h: 100%
  RCP (%) 24-h: 100%
  RCP (%) 48-h: 100%
[2]; ^177Lu-A, PDTC at 20 mg/mL
  RCP for up to 48 hours: 100%
[3]; ^177Lu-B (44-53 mCi) formulated with 5 mg stabilizing compound, 6 h
  (% RCP) 6-h: 94.7%
[3]; ^177Lu-B (44-53 mCi) formulated with 5 mg stabilizing compound, 24 h
  (% RCP) 24-h: 94.0%
[3]; ^177Lu-B (44-53 mCi) formulated with 5 mg stabilizing compound, diluted to ~2 mL, ~6° C. above room temperature, 0 h
  (% RCP) 0-h: 95.0%
[3]; ^177Lu-B formulated with 5 mg stabilizing compound, 0 to 24 h
  RCP Drop over 24 hr: 1%
[4]
  RCP: 100%

Reference: patent US20120065365A1, “Stable Radiopharmaceutical Compositions and Methods for Their Preparation” (BRACCO IMAGING S.P.A., priority 2003, published 2012)
